Data reported in ChEMBL document CHEMBL1130521, “A conformational study of ligands for omega modulatory sites of GABAa receptors by NOESY NMR spectroscopy and distance geometry” (Bioorg Med Chem Lett, 1997).

Columns and labels:
[1] = molecular target: T1, Gamma-aminobutyric acid receptor subunit alpha-5 (Homo sapiens, UniProt P31644); experiment: Inhibition of [3H]flumazenil binding to recombinant GABA-A receptor alpha-5 subunit in cerebellum; type: tissue-based
T1 sequence (P31644 whole entry): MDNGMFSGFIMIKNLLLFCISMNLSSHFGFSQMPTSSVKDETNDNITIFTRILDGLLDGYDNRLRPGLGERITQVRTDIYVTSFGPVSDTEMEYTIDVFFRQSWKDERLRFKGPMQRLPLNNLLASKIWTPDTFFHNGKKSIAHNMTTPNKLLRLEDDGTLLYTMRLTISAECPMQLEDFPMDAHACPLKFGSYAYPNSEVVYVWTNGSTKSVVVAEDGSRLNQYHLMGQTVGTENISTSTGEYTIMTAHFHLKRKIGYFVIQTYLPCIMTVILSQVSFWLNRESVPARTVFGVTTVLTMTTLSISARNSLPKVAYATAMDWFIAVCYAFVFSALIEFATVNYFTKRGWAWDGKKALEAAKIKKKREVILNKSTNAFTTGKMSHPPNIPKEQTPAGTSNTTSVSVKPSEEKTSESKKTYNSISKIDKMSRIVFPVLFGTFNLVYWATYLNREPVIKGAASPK

[2] = molecular target: T1, Gamma-aminobutyric acid receptor subunit alpha-5; experiment: Inhibition of [3H]flumazenil binding to recombinant GABA-A receptor alpha-5 subunit in spinal cord; type: tissue-based

IC50 [1]: 2.7 nM | IC50 [2]: 4.6 nM
Structure (SMILES): CCCC(=O)N(C)Cc1c(-c2ccc(Cl)cc2)nc2ccccn12
